Results taken from EP4458825A1, “SALT OF AMINOPYRIMIDINE COMPOUND AND USE THEREOF” (Sunshine Lake Pharma Co., Ltd., priority 2021, dated 2023).
Counter-ions that a name gives are not always drawn.

Tests used:
[1] = Pharmacokinetics test in SD rats (oral gavage, PEG400 suspension); format: in vivo; settings: 200 mg/kg
Procedure: The salt of the compound shown in formula (I) and the free base crystal form 2 of the compound shown in formula (I) of the present invention were respectively prepared into a suspension using PEG400, and the male SD rats were given 200 mg/kg test samples orally by gavage, and 3 animals in each group were given. Blood was collected at time points 0.25, 0.5, 1.0, 2.0, 5.0, 7.0 and 24 h after administration. Standard curve was plotted based on concentrations of the samples in a suitable range, the concentration of the test sample in the plasma sample was measured and quantified by AB SCIEX API4000-type LC-MS / MS at MRM mode. Pharmacokinetic parameters were calculated according to drug concentration -time curve using a noncompartmental by WinNonLin 6.3 software. Table 2 Pharmacokinetic experimental results data of salt and free base crystal form 2 of the present invention in male SD rats

[2] = Pharmacokinetics test in Beagle dogs (oral capsules); format: in vivo; settings: for Tmax / AUClast / Cmax: 10 mg/kg, male Beagle dogs, oral capsules
Procedure: The salt of the compound shown in formula (I) and the free base crystal form 2 of the compound shown in formula (I) of the present invention were respectively filled with capsules for oral administration.
Male Beagle dogs of 8-12 kg were divided into 2 groups, 3 dogs in each group, and capsules containing test samples were orally administered at a dose of 10 mg/kg, and blood was collected at time points of 0.25, 0.5, 1.0, 2.0, 4.0, 6.0, 8.0 and 24 h. Standard curve was plotted based on concentrations of the samples in a suitable range, the concentration of the test sample in the plasma sample was measured and quantified by AB SCIEX API4000-type LC-MS / MS at MRM mode. Pharmacokinetic parameters were calculated according to drug concentration -time curve using a noncompartmental method by WinNonLin 6.3 software. Table 1 Pharmacokinetic experimental results data of salt and free base crystal form 2 of the present invention in Beagle dogs

Long-term stability test = format: physicochemical; settings: for Purity: long-term, 5 °C ± 3 °C, packaged, HPLC
Procedure: Long-term stability test: The samples were inspected under the conditions of single-layer PE inner packaging, aluminum foil bag outer packaging, built-in KD-20 oxygen absorber, and vacuum nitrogen filling and heat sealing packaging, low temperature 5 °C ± 3 °C long-term test conditions, and the sample color was observed. The purity of the sample was determined by HPLC.

[3] = Stability test: high-humidity test; format: physicochemical; settings: for Purity: HPLC
Procedure: (§1) High-humidity test: The salt of the compound shown in formula (I) of the present invention was taken an appropriate amount and put into a flat weighing flask, divided into ≤ 3 mm thick thin layer. The samples were placed at 25 °C, RH 90% ± 5% and 25 °C, RH 75% ± 5% for 30 days. The samples were sampled at day 5, day 10 and day 30, and the sample color was observed. The purity of the sample was determined by HPLC.

[4] = Stability test: high-temperature test; format: physicochemical; settings: for Purity: HPLC
Procedure: as §1, with “High-temperature” for “High-humidity”, “60 °C” for “25 °C, RH 90% ± 5%”, “40 °C” for “25 °C, RH 75% ± 5%”

[5] = in Beagle dogs, compared with free base crystal form 2
[6] = High humidity RH75%, 25 °C, 5 days
[7] = High humidity RH75%, 25 °C, 10 days
[8] = High humidity RH75%, 25 °C, 30 days
[9] = High humidity RH90%, 25 °C, 5 days
[10] = High humidity RH90%, 25 °C, 10 days
[11] = High humidity RH90%, 25 °C, 30 days
[12] = High temperature (40°C), 5 days
[13] = High temperature (40°C), 10 days
[14] = High temperature (40°C), 30 days
[15] = High temperature (60°C), 5 days
[16] = High temperature (60°C), 10 days
[17] = High temperature (60°C), 30 days

## Cc1noc(-c2c(N)ncnc2N[C@@H](C)c2nc3cccc(C#CCO)c3c(=O)n2-c2ccccc2)n1 [crystal form A of bisulfate salt, (S)-2-(1-((6-amino-5-(3-methyl-1,2,4-oxadiazol-5-yl)pyrimidin-4-yl)amino)ethyl)-5-(3-hydroxyprop-1-yn-1-yl)-3-phenylquinazolin-4(3H)-one]
[1]; male SD rats
  AUClast: 40.6 ± 0.183 µg·h/mL
  Cmax: 4.08 ± 0.375 µg/mL
  Tmax: 1.50 ± 0.866 h

## Cc1noc(-c2c(N)ncnc2N[C@@H](C)c2nc3cccc(C#CCO)c3c(=O)n2-c2ccccc2)n1 [(S)-2-(1-((6-amino-5-(3-methyl-1,2,4-oxadiazol-5-yl)pyrimidin-4-yl)amino)ethyl)-5-(3-hydroxyprop-1-yn-1-yl)-3-phenylquinazolin-4(3H)-one]
[2]; male, Beagle, dog, plasma, po, read-out: Tmax
  Tmax: 3 ± 1.7 h
[1]; male, SD, rat, plasma, po
  AUC(0-t): 55.2 ± 8.7 µg·h/mL
[1]; male, SD, rat, plasma, po, read-out: Tmax
  Tmax: 1.33 ± 0.58 h

## Cc1noc(-c2c(N)ncnc2N[C@@H](C)c2nc3cccc(C#CCO)c3c(=O)n2-c2ccccc2)n1 [Free base crystal form 2, (S)-2-(1-((6-amino-5-(3-methyl-1,2,4-oxadiazol-5-yl)pyrimidin-4-yl)amino)ethyl)-5-(3-hydroxyprop-1-yn-1-yl)-3-phenylquinazolin-4(3H)-one]
[2]
  AUClast: 26.7 ± 6.3 µg·h/mL
  Cmax: 2.48 ± 0.6 µg/mL
  Tmax: 2.36 ± 1.2 h
[1]; male SD rats
  AUClast: 39.8 ± 7.6 µg·h/mL
  Cmax: 5.8 ± 0.85 µg/mL
  Tmax: 1.67 ± 0.58 h

## Cc1noc(-c2c(N)ncnc2N[C@@H](C)c2nc3cccc(C#CCO)c3c(=O)n2-c2ccccc2)n1 [crystal form A of phosphate salt, (S)-2-(1-((6-amino-5-(3-methyl-1,2,4-oxadiazol-5-yl)pyrimidin-4-yl)amino)ethyl)-5-(3-hydroxyprop-1-yn-1-yl)-3-phenylquinazolin-4(3H)-one]
[1]; male SD rats
  AUClast: 37.8 ± 6.55 µg·h/mL
  Cmax: 3.95 ± 1.5 µg/mL
  Tmax: 1.50 ± 0.866 h

## Cc1noc(-c2c(N)ncnc2N[C@@H](C)c2nc3cccc(C#CCO)c3c(=O)n2-c2ccccc2)n1 [crystal form A of p-toluenesulfonate salt] [(S)-2-(1-((6-amino-5-(3-methyl-1,2,4-oxadiazol-5-yl)pyrimidin-4-yl)amino)ethyl)-5-(3-hydroxyprop-1-yn-1-yl)-3-phenylquinazolin-4(3H)-one]
[2]; [5]
  blood concentration: higher
  exposure: higher
[2]
  AUClast: 84.2 ± 20 µg·h/mL
  Cmax: 8.4 ± 1.8 µg/mL
Long-term stability test; condition of long-term stability test
  appearance and purity: no obvious change
Long-term stability test; 0 day
  Purity: 99.27%
Long-term stability test; 3 months
  Purity: 99.26%
Long-term stability test; 6 months
  Purity: 99.23%
Long-term stability test; 9 months
  Purity: 99.26%
Long-term stability test; 12 months
  Purity: 99.27%
Long-term stability test; 18 months
  Purity: 99.24%
Long-term stability test; 24 months
  Purity: 99.24%
[3]; 0 day
  Outward: Light yellow powder
  Purity: 99.78%
[3]; [6]
  Outward: Light yellow powder
  Purity: 99.69%
[3]; [7]
  Outward: Light yellow powder
  Purity: 99.69%
[3]; [8]
  Outward: Light yellow powder
  Purity: 99.65%
[3]; [9]
  Outward: Light yellow powder
  Purity: 99.75%
[3]; [10]
  Outward: Light yellow powder
  Purity: 99.78%
[3]; [11]
  Outward: Light yellow powder
  Purity: 99.81%
[3]; conditions of high humidity
  appearance and purity: not significantly changed
[1]; male SD rats
  Cmax: 6.81 ± 1.7 µg/mL
[4]; 0 day
  Outward: Light yellow powder
  Purity: 99.78%
[4]; [12]
  Outward: Light yellow powder
  Purity: 99.74%
[4]; [13]
  Outward: Light yellow powder
  Purity: 99.78%
[4]; [14]
  Outward: Light yellow powder
  Purity: 99.69%
[4]; [15]
  Outward: Light yellow powder
  Purity: 99.61%
[4]; [16]
  Outward: Light yellow powder
  Purity: 99.44%
[4]; [17]
  Outward: Light yellow powder
  Purity: 99.1%
[4]; conditions of high temperature
  appearance and purity: not significantly changed

## Cc1noc(-c2c(N)ncnc2N[C@@H](C)c2nc3cccc(C#CCO)c3c(=O)n2-c2ccccc2)n1 [crystal form A of Sulfate salt, (S)-2-(1-((6-amino-5-(3-methyl-1,2,4-oxadiazol-5-yl)pyrimidin-4-yl)amino)ethyl)-5-(3-hydroxyprop-1-yn-1-yl)-3-phenylquinazolin-4(3H)-one]
[1]; male SD rats
  AUClast: 35.3 ± 8.92 µg·h/mL
  Cmax: 3.31 ± 0.993 µg/mL
  Tmax: 1.17 ± 0.764 h
